Reference: patent US20100184094A1, “USE OF MDCK CELLS IN THE EVALUATION OF CHOLESTEROL MODULATORS” (priority 2007, published 2010)

Target: dog NPC1L1 (Canis lupus familiaris, UniProt A0A8I3RZG1)
Test: [3H]cholesterol flux into dNPC1L1/MDCKII-Flp cells
Assay type: cell-based
Procedure: Flux assays were performed essentially as described by Yu et al., 2006 J Biol. Chem. 281:6616-6624. Briefly, cell growth medium was completely aspirated and replaced with 200 μl of 5% LPDS containing the appropriate concentration of compound and incubated at 37° C./3 h in a 5% CO2 incubator. Media was subsequently aspirated from cells and cells were incubated in 200 μl of 0-5.5% βmCD dissolved and filtered through a […] filter at 37° C./45 minutes in a 5% CO2 incubator. Media was dumped from cells that were then washed twice with 125 μl of 5% LPDS before media was aspirated and [3H]cholesterol complexed to BSA in 5% LPDS was added; see Yu et al., 2006 J. Biol. Chem. 281:6616-6624. After 45 minute incubation, cells were washed twice with DMEM, thoroughly aspirated and then 1% SDS was added prior to extraction for scintillation counting.
Further evidence for the role of NPC1L1 expression levels on EZE-sensitive [^3H]cholesterol influx was obtained by analyzing the properties of MDCKII-Flp cells over-expressing dog NPC1L1 (dNPC1L1/MDCKII-Flp cells) in an inducible manner.
To further characterize the [^3H] cholesterol influx process into MDCK cells, the potency of EZE-like compound PS for inhibiting [^3H] cholesterol uptake was determined. […]

Sequence of dog NPC1L1 (A0A8I3RZG1 entry or part of it): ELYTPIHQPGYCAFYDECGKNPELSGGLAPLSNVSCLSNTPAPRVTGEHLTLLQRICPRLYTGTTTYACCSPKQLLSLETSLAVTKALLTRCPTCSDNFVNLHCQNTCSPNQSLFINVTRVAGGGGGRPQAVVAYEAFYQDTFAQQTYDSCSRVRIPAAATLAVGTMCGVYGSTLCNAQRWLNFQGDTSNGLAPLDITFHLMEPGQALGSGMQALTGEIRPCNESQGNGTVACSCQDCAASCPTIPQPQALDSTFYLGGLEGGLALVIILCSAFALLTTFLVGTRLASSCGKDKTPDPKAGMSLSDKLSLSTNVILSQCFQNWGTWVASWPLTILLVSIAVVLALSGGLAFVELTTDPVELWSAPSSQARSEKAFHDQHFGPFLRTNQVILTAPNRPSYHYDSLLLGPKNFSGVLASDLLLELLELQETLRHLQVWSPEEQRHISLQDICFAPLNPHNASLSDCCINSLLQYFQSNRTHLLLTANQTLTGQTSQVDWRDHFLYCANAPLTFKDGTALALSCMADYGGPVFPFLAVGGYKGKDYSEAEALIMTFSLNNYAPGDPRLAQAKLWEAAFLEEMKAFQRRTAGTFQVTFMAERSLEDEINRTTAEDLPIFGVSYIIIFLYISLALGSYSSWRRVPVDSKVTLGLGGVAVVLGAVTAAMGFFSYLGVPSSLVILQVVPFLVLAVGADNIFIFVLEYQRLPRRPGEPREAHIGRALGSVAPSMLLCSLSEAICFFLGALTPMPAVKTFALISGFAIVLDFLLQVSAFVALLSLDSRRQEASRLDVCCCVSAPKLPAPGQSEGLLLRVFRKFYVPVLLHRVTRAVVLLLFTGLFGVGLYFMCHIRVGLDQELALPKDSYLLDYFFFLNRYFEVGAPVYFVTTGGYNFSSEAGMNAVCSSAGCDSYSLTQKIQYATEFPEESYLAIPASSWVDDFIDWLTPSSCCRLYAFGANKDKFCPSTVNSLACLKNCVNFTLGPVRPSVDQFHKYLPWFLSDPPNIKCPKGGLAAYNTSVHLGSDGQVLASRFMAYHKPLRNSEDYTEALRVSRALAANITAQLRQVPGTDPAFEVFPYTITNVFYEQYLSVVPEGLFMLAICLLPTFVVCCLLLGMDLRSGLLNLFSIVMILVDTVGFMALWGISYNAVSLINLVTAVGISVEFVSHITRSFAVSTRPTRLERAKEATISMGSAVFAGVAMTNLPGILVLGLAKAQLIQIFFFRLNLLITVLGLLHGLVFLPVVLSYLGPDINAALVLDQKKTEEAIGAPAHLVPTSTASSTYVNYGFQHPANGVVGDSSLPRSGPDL

**Q.** With `COC(=O)[C@H]1O[C@@H](Oc2ccc([C@@H]3[C@@H](CC[C@H](O)c4ccc(F)cc4)C(=O)N3c3ccc(C#CCNS(C)(=O)=O)cc3)cc2)[C@H](O)[C@@H](O)[C@@H]1O` [PS, 4-[(2S,3R)-3-[(3S)-3-(4-fluorophenyl)-3-hydroxypropyl]-1-(4-{3-[(methylsulfonyl)amino]prop-1-yn-1-yl}phenyl)-4-oxoazetidin-2-yl]phenyl methyl-β-D-glucopyranosiduronate] as the compound, how does the “blockade of [3H]cholesterol influx” value (10 μM PS, 5.5% βmCD, after induction with 4 mM sodium butyrate) read?
**A.** almost completely blocked

**Q.** And the IC50 (dNPC1L1/MDCKII-Flp, FIG. 7C, read-out: IC50 inhibition of [3H]cholesterol uptake)?
**A.** 0.32 ± 0.09 nM
